According to patent US7674429B2, “Electrostatic disinfectant delivery” (JohnsonDiversey, Inc., priority 2001, dated 2010):

Key:
[1] = Conductivity measurement (Accumet Basic AV30, two cell probe); format: physicochemical
Experimental: (§1) Various disinfectant compositions were measured to determine associated viscosity, conductivity and/or delivery rate parameters. Viscosity measurements were conducted with a Brookfield DV-III rheometer using procedures well known to those skilled in the art. Conductivity measurements were taken using a conductivity meter (Accumet Basic AV30) instrument using a two cell conductivity probe (epoxy body with a cell constant of 1.0). Delivery rates were determined with a preferred electrostatic delivery apparatus, available through In-Vironmental Integrity, Inc. of Minneapolis, Minn. under the “Aromasys” trademark using standard procedures and protocols.

[2] = Viscosity measurement (Brookfield DV-III rheometer); format: physicochemical
Experimental: as §1

Work on OCCOCCOCCO [triethylene glycol] yielded a conductivity [1] of 0.354 uS/cm and a viscosity [2] of 51.5 cps.
